For one series, the target named is T1, recombinant human MMP-13 (Homo sapiens, UniProt P45452).
T1 construct: made in house
In words: In vitro metalloprotease inhibition, fluorogenic MCA peptide substrate. The class given is biochemical. The note with it: recombinant human MMP-13, APMA activated; room temperature; substrate 4 μM; 1 percent DMSO. The method, then: (§1) Several of the compounds prepared in the manner described in the previous Examples were assayed for activity by an in vitro assay. Following the procedures of Knight et al., FEBS Lett. 296(3):263 (1992). Briefly, 4-aminophenylmercuric acetate (APMA) or trypsin activated MMPs were incubated with various concentrations of the inhibitor compound at room temperature for 5 minutes.
(§2) More specifically, recombinant human MMP-13 and MMP-1 enzymes were prepared in laboratories of the assignee. MMP-13 was expressed in baculovirus as a proenzyme, and purified first over a heparin agarose column and then over a chelating zinc chloride column. The proenzyme was activated by APMA for use in the assay. MMP-1 expressed in transfected HT-1080 cells was provided by Dr. Howard Welgus of Washington University, St. Louis, Mo. The enzyme was also activated using APMA and was then purified over a hydroxamic acid column.
(§3) The enzyme substrate is a methoxycoumarin-containing polypeptide having the following sequence:
(§4) MCA-ProLeuGlyLeuDpaAlaArgNH^2, wherein MCA is methoxycoumarin and Dpa is 3-(2,4-dinitrophenyl)-L-2,3-diaminopropionyl alanine. This substrate is commercially available from Baychem as product M-1895.
(§5) The buffer used for assays contained 100 mM Tris-HCl, 100 mM NaCl, 10 mM CaCl2 and 0.05 percent polyethyleneglycol (23) lauryl ether at a pH value of 7.5. Assays were carried out at room temperature, and dimethyl sulfoxide (DMSO) at a final concentration of 1 percent was used to dissolve inhibitor compound.
(§6) The assayed inhibitor compound in DMSO/buffer solution was compared to an equal amount of DMSO/buffer with no inhibitor as control using Microfluor™ White Plates (Dynatech). The inhibitor or control solution was maintained in the plate for 10 minutes and the substrate was added to provide a final concentration of 4 μM.
(§7) In the absence of inhibitor activity, a fluorogenic peptide was cleaved at the gly-leu peptide bond, separating the highly fluorogenic peptide from a 2,4-dinitrophenyl quencher, resulting in an increase of fluorescence intensity (excitation at 328 nm/emission at 415 nm). Inhibition was measured as a reduction in fluorescent intensity as a function of inhibitor concentration, using a Perkin Elmer L550 plate reader. The IC50 values were calculated from those values. The results are set forth in the Inhibition Table below, reported in terms of IC50.

In a further series the target is T2, recombinant human MMP-1 (Homo sapiens, UniProt P03956).
T2 construct: made in house; host or cells: transfected HT-1080 cells (provided by Dr. Howard Welgus, Washington University)
T2 sequence (P03956 100-469): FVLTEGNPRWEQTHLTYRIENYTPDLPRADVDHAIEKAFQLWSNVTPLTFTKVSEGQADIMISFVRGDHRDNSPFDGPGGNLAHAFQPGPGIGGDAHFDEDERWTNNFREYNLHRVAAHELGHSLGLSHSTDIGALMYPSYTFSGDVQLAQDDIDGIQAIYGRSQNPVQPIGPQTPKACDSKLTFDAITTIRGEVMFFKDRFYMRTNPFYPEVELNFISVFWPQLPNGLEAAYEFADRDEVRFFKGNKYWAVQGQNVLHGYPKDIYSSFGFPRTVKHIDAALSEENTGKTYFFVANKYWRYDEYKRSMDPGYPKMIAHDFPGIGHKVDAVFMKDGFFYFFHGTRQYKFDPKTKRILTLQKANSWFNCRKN
The series is described as above. The format is biochemical. The note with it: recombinant human MMP-1, APMA activated; room temperature; substrate 4 μM; 1 percent DMSO. The method, then: as §1, §2, §3, §4, §5, §6, §7

Series [1] has as its system solid tumor cancers (colorectal, pancreatic, ovarian, prostate). The note with it: cited from earlier work.

pIC50: −log10 of the molar value. Counter-ions that a name gives are not always drawn. Where only a bound is given, the exact number is not on record here.

Regarding `CC(C)[C@H](C(=O)NO)N(CCN1CCCCC1)S(=O)(=O)c1ccc(Sc2ccccc2)cc1` [Example 8d, N-hydroxy-3-methyl-2R-[[(4-phenylthio)-phenyl]-sulfonyl]-[2-(1-piperidinyl)-ethyl]amino]-butanamide, Monohydrochloride], the pIC50 (usually −log10 of the IC50, conventionally taken in molar units) on recombinant human MMP-13 is 9.00; on recombinant human MMP-1, 6.30.
For `C[C@H](C(=O)NO)N(CCN1CCOCC1)S(=O)(=O)c1ccc(Sc2ccccc2)cc1` [Example 3g, N-hydroxy-2R-[[2-(4-morpholinyl)ethyl][[4-(phenylthio)phenyl]sulfonyl]amino]propanamide], in that order: 9.30 and 5.74.
With `Cc1cccc(Sc2ccc(S(=O)(=O)N(CCN3CCOCC3)[C@@H](C(=O)NO)C(C)C)cc2)c1` [Example 1g, N-hydroxy-3-methyl-2R-[[[4-[(3-methylphenyl)thio]phenyl]sulfonyl]-[2-(4-morpholinyl)-ethyl]amino]-butanamide, Monohydrochloride], the pIC50 at recombinant human MMP-13 is 8.72; at recombinant human MMP-1 it was 5.82.
On the same counts, the results for `Cc1ccc(Sc2ccc(S(=O)(=O)N(CCN3CCOCC3)[C@H](C)C(=O)NO)cc2)cc1` [Example 4f, N-hydroxy-2R-[[2-(4-morpholinyl)ethyl][[4-[(4-methylphenyl)thio]phenyl]sulfonyl]-amino]-propanamide, Monohydrochloride] are 10.00 and less than 5.00.
For `Cc1ccc(Sc2ccc(S(=O)(=O)N(CCN3CCOCC3)[C@@H](C(=O)NO)C(C)C)cc2)cc1` [Example 2e, N-hydroxy-3-methyl-2R-[[[4-[(4-methylphenyl)-thio]phenyl]sulfonyl][2-(4-morpholinyl)ethyl]-amino]-butanamide, Monohydrochloride], in that order: 9.30 and 5.70.
Turning to `CC(C)[C@H](C(=O)NO)N(CCN1CCOCC1)S(=O)(=O)c1ccc(Sc2ccccc2)cc1` [Example 7f, N-hydroxy-3-methyl-2R-[[(4-phenylthio)-phenyl]-sulfonyl]-[2-(4-morpholinyl)-ethyl]amino]-butanamide, Monohydrochloride], the pIC50 at recombinant human MMP-13 was 9.52; at recombinant human MMP-1, 6.25.
Regarding `O=C(CN(CCN1CCOCC1)S(=O)(=O)c1ccc(SC2CCCCC2)cc1)NO` [Example 5f, [[[4-(Cyclohexylthio)phenyl]sulphonyl][2-(4-morpholinyl)ethyl]amino]-N-hydroxyacetamide], the pIC50 on recombinant human MMP-13 was 8.80; at recombinant human MMP-1, less than 5.00.
Take `CNC(=O)[C@@H](NC(=O)[C@H](CC(C)C)[C@H](O)C(=O)NO)C(C)(C)C` [marimastat]: in series [1] (Phase I/II, patients with advanced, treatment-refractory solid tumor cancers), the “rise of cancer-specific antigens used as surrogate markers for biological activity” value was “dose-related reduction”. Further, the “most common drug-related toxicity” value in series [1] (clinical trials, patients) is “musculoskeletal pain and stiffness”.
In the case of `O=C(CN(CCN1CCOCC1)S(=O)(=O)c1ccc(Sc2ccccc2)cc1)NO` [Example 6e, 2-[[[4-(phenylthio)phenyl]sulphonyl][2-(4-morpholinyl)ethyl]amino]-N-hydroxyacetamide, Hydrochloride], the pIC50 on recombinant human MMP-13 was 10.00; at recombinant human MMP-1 it was 5.40.

The values above are taken from US20040034071A1, “Thioaryl sulfonamide hydroxamic acid compounds” (priority 1999, published 2004).
